# “Also recorded” adds a separate entry of the source.
# Columns and labels:
# Type in all cases: cell-based, human
# [1] = system: SHH pathway; test: RT-PCR of transcription factors in caudalized NE after 1 week of treatment
# Method: Total RNA was extracted from motor neuron differentiation cultures using RNA STAT-60 (Tel-Test, Inc.; […] Carlsbad, Calif.) according to the manufacturer's protocol and was used as templates for the PCR reaction. PCR reaction was performed in a 15 μl mixture containing cDNA, primers and 1×PCR Master mix (Promega; Madison, Wis.). The following primers were used: Olig-2,[NT] ID NO:21), [NT] ID NO:22), 315 bp; […] ID NO:23), [NT] ID NO:24), 337 bp; […] ID NO:25), [NT] ID NO:26), 473 bp; […] ID NO:27), [NT] ID NO:28), 459 bp; […] ID NO:31), [NT] ID NO:32), 335 bp; GAPDH, [NT] ID NO:1), [NT] ID NO:2), 450 bp; […] ID NO:33), [NT] ID NO:34), 269 bp; […] ID NO:35), [NT] ID NO:36), 399 bp; […] ID NO:37), [NT] ID NO:38), 352 bp; and Gli1, [NT] ID NO:39), [NT] ID NO:40), 185 bp.
# [2] = system: hESC-derived neuroepithelial cells; test: Ventral spinal progenitor and motor neuron differentiation in suspension culture, immunocytochemistry, cell counting and FACS
# Method: For motor neuron induction, hESC-derived neuroepithelial cells at day 10 were first treated with RA (0.1 μM) for caudalization in a neural medium, which consisted of DMEM/F12 (Gibco), N2 supplement, heparin (Sigma, 2 μg/ml) and cAMP (Sigma, 1 μM). One week later (day 17), the posteriorized neuroectodermal cells were isolated, and suspended in the same neural medium in the presence of RA (0.1 μM) and SHH (100-200 ng/ml; R&D, 1845-SH) for one week. After that (day 24), brain-derived neurotrophic factor (BDNF), glial-derived neurotrophic factor (GDNF) and insulin-like growth factor-1 (IGF1) (10 ng/ml, PeproTech Inc.) were added to the culture. Purmorphamine (Calbiochem) at different concentrations (0.5, 1, 2 and 5 μM) was used instead of SHH in some experiments (see Results).
# Immunohistochemical staining was performed according to Zhang et al., (Zhang et al. (2001), supra). Primary antibodies used in this study included polyclonal antibodies against Olig2 (1:500, Santa Cruz), Ki67 (1:200, Zymed), Otx2 (1:2000, Chemicon) and ChAT (1:200, Chemicon). Antibodies against MNR2 or HB9 (81.5C10) (1:50), Pax7 (1:2000), Nkx2.2 (1:50) and Hoxb4 (1:50) were purchased from Developmental Studies Hybridoma Bank (DSHB, Iowa City, Iowa). Polyclonal Phox2b and Irx3 antibodies were kindly provided by Dr. Jean-François Brunet (CNRS; École Normale Supérieure, Paris) and Dr. Thomas Jessell (Columbia University; New York, N.Y.), respectively. Images were collected using a Spot digital camera mounted onto a Nikon fluorescent microscope 600 (Fryer Inc.; Huntley, Ill.) or a confocal microscope (Nikon; Tokyo, Japan).
# The population of Olig2 or HB9-expressing cells among total differentiated cells (Hoechst labeled) was counted in two ways, as previously described (Li et al. (2005), supra). Six to twelve clusters in each group were counted and data were expressed as Mean ± SEM. Differences between groups were compared by ANOVA test, and the statistical significance was defined as two-sided (p=0.05).
# Cells were harvested using Accutase® (Innovative Cell), gently dissociated to single cells and washed with a FACS buffer (PBS, 0.1% NaN3, 2% donkey serum). After being fixed and permeabilized with ice cold 0.1% paraformaldehyde for 10 minutes and with 90% methanol for 30 minutes, cells Were then incubated in primary antibody (Olig2, goat IgG, 1:500) or a goat IgG control at […]. Cells were then washed and incubated with a corresponding secondary antibody, such as Alexa 488 conjugated, donkey, anti-goat IgG, for 2 hours followed by washing steps. Cells were analyzed by a Becton Dickinson FACSCaliber and analyzed with CellQuest Pro (BD Biosciences).
# [3] = system: hESC-derived neuroectodermal cells; test: Motor neuron induction in adherent culture, immunocytochemistry and HB9 cell counting
# Method: hESCs (lines H1 and H9, passages 19 to 42) were cultured and passaged weekly on a feeder layer of irradiated embryonic mouse fibroblasts as described (Thomson et al., supra, 1998). The undifferentiated state of ESCs were confirmed by typical morphology and expression of Oct4 and SSEA4. For neuroectodermal differentiation, hESCs were aggregated for four days and then cultured on an adhesive plastic surface for ten days in F12/DMEM supplemented with N2, heparin (2 ng/ml), and FGF2 (20 ng/ml) or RA (Zhang et al., supra, 2001). […]
# Primary antibodies used in this study included polyclonal antibodies against neuronal class III βIII-tubulin (Covance Research Products, Richmond, Calif., 1:2000), nestin (Chemicon, Temecula, Calif., 1:750), Sox1 (Chemicon, 1:1000), synapsin I (Calbiochem, Darmstadt, German, 1:500), ChAT (Chemicon, 1:50), and VAChT (Chemicon, 1:1000), Isl½ (S. Pfaff), Otx2 (F. Vaccarino), and Oig2 (M. Nakafuku). […] For identification of electrophysiologically recorded cells, biocytin (Molecular Probes) filled cells were labeled with streptavidin-FITC (sigma, 1:200) and stained for ChAT. […]
# The population of HB9-expressing cells among total differentiated cells (Hoechst labeled) was counted by a person who was blind to experimental groups either manually using the Metamorph software (Universal Imaging Corporation, Downingtown, Pa.) or by stereological measurement. […]
# [4] = system: hESC-derived motor neurons; test: Whole-cell patch-clamp of hESC-derived motor neurons, spontaneous synaptic currents; settings: combination of D-AP5 (40 μM) and CNQX (20 μM)
# [5] = system: hESC-derived neural precursors; test: BrdU incorporation by dissociated ES cell-derived neural precursors; settings: FGF2 20 ng/ml, EGF 20 ng/ml, LIF 5 ng/ml; each alone
# Method: Histochemical and immunohistochemical staining. To better visualize the rosette formations, cultures with rosettes were rinsed with PBS and fixed in 4% paraformaldehyde and 0.25% glutaraldehyde for 1 hour. The fixed cells were then processed for embedding in plastic resin as described (Zhang et al., supra, 1999). The cultured cells were then sectioned in 1-μm thickness and stained with toluidine blue. For immunostaining, the coverslip cultures were immunostained with the following primary antibodies detected by appropriate fluorescent secondary antibodies detailed elsewhere (Zhang et al., supra, 2000; Zhang et al., supra, 1999): anti-nestin (polyclonal, gift of Dr. R. McKay of NINDS, 1:1,000); anti-polysialylated neuronal cell adhesion molecule (PSA-NCAM, mouse IgM, gift of Dr. G. Rougon of University of Marseille, France, 1:200); anti-Musashi-1 (rat IgG, gift of Dr. H. Okano, University of Tokyo, Japan, 1:500); anti-GFAP (polyclonal, Dako, 1:1,000); anti-human GFAP (Sternberg monoclonals, 1:10,000); O4 (mouse IgM, hybridoma supernatant, 1:50); anti-tyrosine hydroxylase (TH, Pel Freez, 1:500). The remaining antibodies were from Sigma: anti-βIII-tubulin (mouse IgG, 1:500); anti-neurofilament (NF) 68 (mouse IgG, 1:1,000); anti-NF 200 (polyclonal, 1:5,000); anti-MAP2ab (mouse IgG, 1:250); anti-γ-aminobutyric acid (GABA, polyclonal, 1:10,000); anti-glutamate (mouse IgG, 1:10,000). For bromodeoxyuridine (BrdU) incorporation, 4 coverslip cultures in each group were incubated with 2 μM of BrdU for sixteen hours before the cultures were fixed in 4% paraformaldehyde, denatured with 1N HCl and processed for immunolabeling and cell counting (Zhang et al., supra, 2000; Zhang et al., supra, 1999).
compound,measurement,setting,value
c1ccc2c(Oc3nc(Nc4ccc(N5CCOCC5)cc4)c4ncn(C5CCCCC5)c4n3)cccc2c1 [purmorphamine],"Expression pattern of class II factors (Nkx6.1, Nkx2.2) compared with SHH",[1]; 1 week of purmorphamine treatment,almost identical expression pattern
same,mRNA for Gli1,[1]; 1 week of treatment,increased levels
same,Time of treatment until Olig2+ cells first observed,"[2]; after isolating NE cells (day 22 of hESC differentiation), a few days earlier than SHH/RA",≤ 5 days
same,Olig2+ cells (highest percentage),"[2]; purmorphamine 1 μM with RA, 3.5 weeks, confirmed by FACS",around 40%
same,Olig2 expression in progenitors,"[2]; purmorphamine 0.5, 1 and 2 uM in the presence of RA 0.1 μM, 3.5 weeks",robustly induced; also recorded: dose-dependent manner
same,Induction of Olig2+ or HB9+ cells,[2]; purmorphamine alone (without RA) from day 17,not sufficient
same,Expression of Olig2 and HB9,"[2]; purmorphamine with RA, 4.5 week",over 40%
same,Olig2+ motor neuron progenitors and HB9+ motor neurons of differentiated population,"[2]; purmorphamine with RA, 4.5 weeks of hESC differentiation",at least 80%
same,HB9+ motor neurons also positive for ChAT,"[2]; purmorphamine, attachment on coverslips and another week of differentiation",most
"CC1=C(/C=C/C(C)=C/C=C/C(C)=C/C(=O)O)C(C)(C)CCC1 [RA, retinoic acid]",RA concentration inducing the highest proportion of HB9+ cells,[3],0.1 to 1.0 µM
same,RA dose resulting in degeneration of some cells,[3]; chemically defined adherent cultures,over 1.0 μM
"N#Cc1cc2c(cc1[N+](=O)[O-])=NC(=O)C(=O)N=2 [CNQX, 6-cyano-7-nitroquinoxaline-2,3-dione]",Effect on remaining inward (excitatory) synaptic currents,[4],blocked
"EGF: epidermal growth factor (NSDSECPLSHDGYCLHDGVCMYIEALDKYACNCVVGYIGERCQYRDLKWWELR; Epidermal growth factor; UniProt P01133 971-1023, looked up)",BrdU incorporation (stimulation of precursor cell proliferation),[5],could not be elicited
"N[C@H](CCCP(=O)(O)O)C(=O)O [D-AP5, D-2-amino-5-phosphonovaleric acid]",Effect on remaining inward (excitatory) synaptic currents,[4],blocked
LIF: leukemia inhibitory factor,BrdU incorporation (stimulation of precursor cell proliferation),[5],could not be elicited
